Results as given in patent publication US9987246B2, “4-benzylsulfonyl-2-butenenitrile” (Olatec Therapeutics LLC, priority 2014, dated 2018).

Key:
mice = experiment: Tail flick test (analgesic activity, 49° C. water bath); format: in vivo
Protocol: Tail flick test is a test of the pain response in animals. Tail flick test is used in basic pain research and to measure the effectiveness of analgesics, by observing the tail flick reaction to heat in an animal. This test assesses the nociceptive response to a local pain stimulus, and the ability of a drug to inhibit this response.
Vehicle control (dimethyl sulfoxide, DMSO) and test compound 4-benzylsulfonyl-2-butenenitrile in DMSO were administered intraperitoneally to mice with a volume of 5 mL/kg, twice, at 30 minutes before the first tail flick measurement. The test compound was administered at a dosage of 50 mg/kg. The positive control compound morphine was administered by subcutaneous injection at 8 mg/kg with a volume of 8 mL/kg, at 30 minutes before the first tail flick measurement. Each group had 10 mice.
The response of mice to heat stimulus was evaluated by measuring the time of tail-flick or tail-flick latency from 49° C. water bath. Briefly, the animal was placed in a restrainer with its tail hanging down. Approximately 2 inches of the tail was immersed in a beaker of water at 38±1° C. for about 30 seconds, and this was done twice to acclimate the animal to the procedure.
Subsequently, approximately 2 inches of the tail was immersed in a beaker of water at 49±1° C., at which point a timer was started.
Tail flick measurements were made 30, 60 and 120 minutes post administration of the dosage of test compound. An ANOVA was done, and if p<0.05, a Dunnett's t test was employed to calculate significant difference between vehicle control and test compound treated groups. A pairwise Student's t test was used to calculate differences between the morphine group and the control group.

[1] = test system: human peripheral blood mononuclear cells; experiment: Pro-inflammatory cytokine release from human peripheral blood mononuclear cells in vitro; format: cell-based; settings: statement only, no data or method given

Row | SMILES | tail flick latency compared with vehicle-treated mice (mice; morphine 8 mg/kg subcutaneous injection, 30 minutes) | tail flick latency compared with vehicle-treated mice (mice; morphine 8 mg/kg subcutaneous injection, 60 minutes) | tail flick latency compared with vehicle-treated mice (mice; morphine 8 mg/kg subcutaneous injection, 120 minutes) | tail flick latency compared with vehicle-treated mice (mice; 50 mg/kg intraperitoneal in DMSO, 30 minutes, p value=0.046) | tail flick latency compared with vehicle-treated mice (mice; 50 mg/kg intraperitoneal in DMSO, 120 minutes, p value=0.020) | inhibition of pro-inflammatory cytokine release (e.g., IL-1β, IL-6, TNFα, IL-4 and IFNγ) [1]
1 | CN1CC[C@]23c4c5ccc(O)c4O[C@H]2[C@@H](O)C=C[C@H]3[C@H]1C5 [Morphine, morphine] | statistically significant tail flick latency | statistically significant tail flick latency | not at 120 minutes | – | – | –
2 | N#CC=CCS(=O)(=O)Cc1ccccc1 (racemic) [4-benzylsulfonyl-2-butenenitrile] | – | – | – | statistically significant tail flick latency | statistically significant tail flick latency | effective in inhibiting pro-inflammatory cytokine release
